pIC50, pKd: −log10 of the molar value.
target: T1, Human immunodeficiency virus type 1 reverse transcriptase (Human immunodeficiency virus 1, UniProt Q72547); test: Inhibition of HIV1 reverse transcriptase

`Cc1cc(S(N)(=O)=O)ccc1NC(=O)COc1ccc(Cl)cc1C(=O)c1cc(F)cc(C(F)(F)F)c1` was tested, and the pIC50 was 8.85.

target: T1, Human immunodeficiency virus type 1 reverse transcriptase; test: Binding affinity to HIV1 reverse transcriptase by surface plasmon resonance based biosensor assay

Going from `NC(=S)NCCc1ccccc1` to `S=C(NCCc1ccccc1)Nc1ccccn1`, the pKd rises from 3.15 to 5.22 (2.07 log units). The second binds more tightly here.

Compared with `O=C(CSc1nncn1-c1ccccc1)Nc1ccccc1`, `Cc1ccc(-n2cnnc2SCC(=O)Nc2ccccc2)cc1` is 0.33 log units higher in pKd: 2.77 for the first, 3.10 for the second. The second binds more tightly here.

First: NS(=O)(=O)c1ccc(NC(=O)COc2ccc(Cl)cc2)cc1
Second: Cc1ccccc1OCC(=O)Nc1ccc(S(N)(=O)=O)cc1
The pKd of the first is 1.56 log units higher: 4.52 for the first, 2.96 for the second.

`NS(=O)(=O)c1ccc(NC(=O)CSc2nc[nH]n2)cc1` and `NS(=O)(=O)c1ccc(NC(=O)CSc2nncn2-c2ccccc2)cc1` are within 0.2 log units of each other in pKd: 2.80 for the first, 2.89 for the second.

Going from `CC(=O)c1ccccc1OCC(=O)Nc1ccccc1C` to `S=C(NCCc1ccccc1)Nc1ccc(Br)cn1`, the pKd rises from 3.10 to 5.70 (2.60 log units).

Reference: ChEMBL document CHEMBL1671811, “Deconstruction of non-nucleoside reverse transcriptase inhibitors of human immunodeficiency virus type 1 for exploration of the optimization landscape of fragments” (J Med Chem, 2011)
